# From PubChem BioAssay (NCI)
#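 Briefly, cells in 96-well plates were exposed to five compound concentrations for 48 h, and endpoints were estimated by linear interpolation. TGI marks complete inhibition of growth.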
# Assays:
# Experiment in all cases: growth of human tumour cells (NCI), 48 h
# [1] = tested on: 786-0 renal
# [2] = tested on: A498 renal
# [3] = tested on: A549 NSCLC
# [4] = tested on: ACHN renal
# [5] = tested on: BT-549 breast
# [6] = tested on: CAKI-1 renal
# [7] = tested on: CCRF-CEM leukemia
# [8] = tested on: COLO 205 colon
# [9] = tested on: DU-145 prostate
# [10] = tested on: EKVX NSCLC
# [11] = tested on: HCC-2998 colon
# [12] = tested on: HCT-116 colon
# [13] = tested on: HCT-15 colon
# [14] = tested on: HL-60(TB) leukemia
# [15] = tested on: HOP-62 NSCLC
# [16] = tested on: HOP-92 NSCLC
# [17] = tested on: HS 578T breast
# [18] = tested on: HT29 colon
# [19] = tested on: IGROV1 ovarian
# [20] = tested on: K-562 leukemia
# [21] = tested on: KM12 colon
# [22] = tested on: LOX IMVI melanoma
# [23] = tested on: M14 melanoma
# [24] = tested on: MCF7 breast
# [25] = tested on: MDA-MB-231 breast
# [26] = tested on: MDA-MB-435
# [27] = tested on: MDA-N
# [28] = tested on: MOLT-4 leukemia
# [29] = tested on: NCI-H226 lung
# [30] = tested on: NCI-H23 lung
# [31] = tested on: NCI-H460 lung
# [32] = tested on: NCI-H522 lung
# [33] = tested on: NCI/ADR-RES ovarian
# [34] = tested on: OVCAR-3 ovarian
# [35] = tested on: OVCAR-4 ovarian
# [36] = tested on: OVCAR-5 ovarian
# [37] = tested on: OVCAR-8 ovarian
# [38] = tested on: PC-3 prostate
# [39] = tested on: RPMI-8226 leukemia
# [40] = tested on: RXF 393 renal
# [41] = tested on: SF-268 CNS
# [42] = tested on: SF-295 CNS
# [43] = tested on: SF-539 CNS
# [44] = tested on: SK-MEL-2 melanoma
# [45] = tested on: SK-MEL-28 melanoma
# [46] = tested on: SK-MEL-5 melanoma
# [47] = tested on: SK-OV-3 ovarian
# [48] = tested on: SN12C renal
# [49] = tested on: SNB-19 CNS
# [50] = tested on: SNB-75 CNS
# [51] = tested on: SR leukemia
# [52] = tested on: SW-620 colon
# [53] = tested on: T-47D breast
# [54] = tested on: TK-10 renal
# [55] = tested on: U251 CNS
# [56] = tested on: UACC-257 melanoma
# [57] = tested on: UACC-62 melanoma
# [58] = tested on: UO-31 renal
# [59] = tested on: MALME-3M melanoma
smiles,measurement,setting,value
CN(N=O)C(=O)NNC(=O)N(C)N=O,TGI,[1],95.1 µM
same,TGI,[2],> 100 µM
same,TGI,[3],> 100 µM
same,TGI,[4],> 100 µM
same,TGI,[5],> 100 µM
same,TGI,[6],> 100 µM
same,TGI,[7],> 100 µM
same,TGI,[8],> 100 µM
same,TGI,[9],> 100 µM
same,TGI,[10],> 100 µM
same,TGI,[11],> 100 µM
same,TGI,[12],> 100 µM
same,TGI,[13],> 100 µM
same,TGI,[14],> 100 µM
same,TGI,[15],> 100 µM
same,TGI,[16],> 100 µM
same,TGI,[17],> 100 µM
same,TGI,[18],> 100 µM
same,TGI,[19],> 100 µM
same,TGI,[20],> 100 µM
same,TGI,[21],> 100 µM
same,TGI,[22],> 100 µM
same,TGI,[23],> 100 µM
same,TGI,[24],> 100 µM
same,TGI,[25],> 100 µM
same,TGI,[26],> 100 µM
same,TGI,[27],> 100 µM
same,TGI,[28],> 100 µM
same,TGI,[29],> 100 µM
same,TGI,[30],> 100 µM
same,TGI,[31],> 100 µM
same,TGI,[32],> 100 µM
same,TGI,[33],> 100 µM
same,TGI,[34],> 100 µM
same,TGI,[35],> 100 µM
same,TGI,[36],> 100 µM
same,TGI,[37],> 100 µM
same,TGI,[38],> 100 µM
same,TGI,[39],> 100 µM
same,TGI,[40],85.7 µM
same,TGI,[41],> 100 µM
same,TGI,[42],> 100 µM
same,TGI,[43],> 100 µM
same,TGI,[44],> 100 µM
same,TGI,[45],> 100 µM
same,TGI,[46],> 100 µM
same,TGI,[47],> 100 µM
same,TGI,[48],> 100 µM
same,TGI,[49],> 100 µM
same,TGI,[50],> 100 µM
same,TGI,[51],> 100 µM
same,TGI,[52],> 100 µM
same,TGI,[53],> 100 µM
same,TGI,[54],> 100 µM
same,TGI,[55],> 100 µM
same,TGI,[56],> 100 µM
same,TGI,[57],> 100 µM
same,TGI,[58],> 100 µM
CN(C)C(=O)Oc1ccc[n+](C)c1,TGI,[1],> 100 µM
same,TGI,[2],> 100 µM
same,TGI,[4],> 100 µM
same,TGI,[5],> 100 µM
same,TGI,[6],> 100 µM
same,TGI,[8],> 100 µM
same,TGI,[9],> 100 µM
same,TGI,[10],> 100 µM
same,TGI,[11],> 100 µM
same,TGI,[12],> 100 µM
same,TGI,[13],> 100 µM
same,TGI,[14],> 100 µM
same,TGI,[15],> 100 µM
same,TGI,[17],> 100 µM
same,TGI,[18],> 100 µM
same,TGI,[19],> 100 µM
same,TGI,[20],> 100 µM
same,TGI,[21],> 100 µM
same,TGI,[22],> 100 µM
same,TGI,[59],> 100 µM
same,TGI,[24],> 100 µM
same,TGI,[25],> 100 µM
same,TGI,[26],> 100 µM
same,TGI,[27],> 100 µM
same,TGI,[28],> 100 µM
same,TGI,[29],> 100 µM
same,TGI,[30],> 100 µM
same,TGI,[31],> 100 µM
same,TGI,[32],> 100 µM
same,TGI,[33],> 100 µM
same,TGI,[34],> 100 µM
same,TGI,[35],> 100 µM
same,TGI,[36],> 100 µM
same,TGI,[37],> 100 µM
same,TGI,[38],> 100 µM
same,TGI,[39],> 100 µM
same,TGI,[40],> 100 µM
same,TGI,[41],> 100 µM
same,TGI,[42],> 100 µM
same,TGI,[44],> 100 µM
same,TGI,[45],> 100 µM
same,TGI,[46],> 100 µM
same,TGI,[48],> 100 µM
same,TGI,[49],> 100 µM
same,TGI,[50],> 100 µM
same,TGI,[51],> 100 µM
same,TGI,[52],> 100 µM
same,TGI,[53],> 100 µM
same,TGI,[54],> 100 µM
same,TGI,[55],> 100 µM
same,TGI,[56],> 100 µM
same,TGI,[57],> 100 µM
same,TGI,[58],> 100 µM
COc1ccc(-c2ncnc(-c3ccc(OC)c(OC)c3)n2)cc1OC,TGI,[1],> 100 µM
same,TGI,[2],> 100 µM
same,TGI,[3],> 100 µM
same,TGI,[4],> 100 µM
same,TGI,[5],> 100 µM
same,TGI,[6],> 100 µM
same,TGI,[7],> 100 µM
same,TGI,[8],> 100 µM
same,TGI,[9],> 100 µM
same,TGI,[10],> 100 µM
same,TGI,[11],> 100 µM
same,TGI,[12],> 100 µM
same,TGI,[14],> 100 µM
same,TGI,[15],> 100 µM
same,TGI,[16],> 100 µM
same,TGI,[17],> 100 µM
same,TGI,[18],> 100 µM
same,TGI,[19],> 100 µM
same,TGI,[20],> 100 µM
same,TGI,[21],> 100 µM
same,TGI,[22],> 100 µM
same,TGI,[23],> 100 µM
same,TGI,[59],> 100 µM
same,TGI,[24],> 100 µM
same,TGI,[25],> 100 µM
same,TGI,[26],> 100 µM
same,TGI,[27],> 100 µM
same,TGI,[29],> 100 µM
same,TGI,[30],> 100 µM
same,TGI,[32],> 100 µM
same,TGI,[33],> 100 µM
same,TGI,[34],> 100 µM
same,TGI,[36],> 100 µM
same,TGI,[37],> 100 µM
same,TGI,[38],> 100 µM
same,TGI,[40],> 100 µM
same,TGI,[41],> 100 µM
same,TGI,[42],> 100 µM
same,TGI,[44],> 100 µM
same,TGI,[45],> 100 µM
same,TGI,[46],> 100 µM
same,TGI,[47],> 100 µM
same,TGI,[48],> 100 µM
same,TGI,[50],> 100 µM
same,TGI,[51],> 100 µM
same,TGI,[52],> 100 µM
same,TGI,[53],> 100 µM
same,TGI,[54],> 100 µM
same,TGI,[55],> 100 µM
same,TGI,[56],> 100 µM
same,TGI,[57],> 100 µM
same,TGI,[58],> 100 µM
Cc1cccc(-n2c(C)nc3ccc(NC(=S)Nc4ccccc4)cc3c2=O)c1,TGI,[1],> 100 µM
same,TGI,[2],> 100 µM
same,TGI,[4],> 100 µM
same,TGI,[5],> 100 µM
same,TGI,[6],> 100 µM
same,TGI,[8],> 100 µM
same,TGI,[9],> 100 µM
same,TGI,[10],> 100 µM
same,TGI,[11],78.1 µM
same,TGI,[12],> 100 µM
same,TGI,[13],> 100 µM
same,TGI,[14],> 100 µM
same,TGI,[15],> 100 µM
same,TGI,[17],> 100 µM
same,TGI,[18],> 100 µM
same,TGI,[19],> 100 µM
same,TGI,[20],> 100 µM
same,TGI,[21],> 100 µM
same,TGI,[22],> 100 µM
same,TGI,[59],> 100 µM
same,TGI,[24],> 100 µM
same,TGI,[25],> 100 µM
same,TGI,[26],> 100 µM
same,TGI,[27],> 100 µM
same,TGI,[28],71.9 µM
same,TGI,[29],> 100 µM
same,TGI,[30],> 100 µM
same,TGI,[31],> 100 µM
same,TGI,[32],> 100 µM
same,TGI,[33],> 100 µM
same,TGI,[34],> 100 µM
same,TGI,[35],> 100 µM
same,TGI,[36],> 100 µM
same,TGI,[37],> 100 µM
same,TGI,[38],> 100 µM
same,TGI,[39],> 100 µM
same,TGI,[40],> 100 µM
same,TGI,[41],> 100 µM
same,TGI,[42],> 100 µM
same,TGI,[44],> 100 µM
same,TGI,[45],> 100 µM
same,TGI,[46],57.1 µM
same,TGI,[48],> 100 µM
same,TGI,[49],> 100 µM
same,TGI,[50],> 100 µM
same,TGI,[51],> 100 µM
same,TGI,[52],> 100 µM
same,TGI,[53],> 100 µM
same,TGI,[54],> 100 µM
same,TGI,[55],> 100 µM
same,TGI,[56],> 100 µM
same,TGI,[57],> 100 µM
same,TGI,[58],> 100 µM
O=C1CNN=C(CSc2nc3ccc(I)cc3c(=O)n2Cc2ccccc2)N1,TGI,[1],> 100 µM
same,TGI,[2],94.1 µM
same,TGI,[3],> 100 µM
same,TGI,[4],31.6 µM
same,TGI,[5],86.3 µM
same,TGI,[6],34.3 µM
same,TGI,[7],50.5 µM
same,TGI,[8],28.4 µM
same,TGI,[9],53.4 µM
same,TGI,[10],> 100 µM
same,TGI,[11],81.7 µM
same,TGI,[12],50.7 µM
same,TGI,[13],> 100 µM
same,TGI,[14],4.03 µM
same,TGI,[15],> 100 µM
same,TGI,[16],72 µM
same,TGI,[17],> 100 µM
same,TGI,[18],> 100 µM
same,TGI,[19],55.6 µM
same,TGI,[20],> 100 µM
same,TGI,[21],93.2 µM
same,TGI,[22],33.4 µM
same,TGI,[23],> 100 µM
same,TGI,[59],54.2 µM
same,TGI,[24],> 100 µM
same,TGI,[25],38.9 µM
same,TGI,[26],97.6 µM
same,TGI,[27],87.2 µM
same,TGI,[28],> 100 µM
same,TGI,[29],42.4 µM
same,TGI,[30],> 100 µM
same,TGI,[31],> 100 µM
same,TGI,[32],68.6 µM
same,TGI,[33],77.1 µM
same,TGI,[34],45.1 µM
same,TGI,[35],> 100 µM
same,TGI,[36],> 100 µM
same,TGI,[37],94.7 µM
same,TGI,[38],79.6 µM
same,TGI,[39],91.9 µM
same,TGI,[41],57.7 µM
same,TGI,[42],59.7 µM
same,TGI,[43],58.3 µM
same,TGI,[44],34.7 µM
same,TGI,[45],44.4 µM
same,TGI,[46],30.6 µM
same,TGI,[47],> 100 µM
same,TGI,[48],34.3 µM
same,TGI,[49],> 100 µM
same,TGI,[50],35.8 µM
same,TGI,[51],92.3 µM
same,TGI,[52],> 100 µM
same,TGI,[53],43.5 µM
same,TGI,[54],78.3 µM
same,TGI,[55],52 µM
same,TGI,[56],70.7 µM
same,TGI,[57],32.6 µM
same,TGI,[58],4.37 µM
